Data: ChEMBL document CHEMBL1129789, “Dopamine D3 and D4 receptor antagonists: synthesis and structure--activity relationships of (S)-(+)-N-(1-Benzyl-3-pyrrolidinyl)-5-chloro-4- [(cyclopropylcarbonyl) amino]-2-methoxybenzamide (YM-43611) and related compounds” (J Med Chem, 1996)

Tests used:
[1] = molecular target: T1, 5-hydroxytryptamine receptor 1A (Rattus norvegicus, UniProt P19327); experiment: Compound was tested for the Binding affinity against rat hippocampal 5-hydroxytryptamine 1A receptor by Radio ligand [3H]8-OH-DPAT binding assay.; assay type: tissue-based, Hippocampus
T1 sequence (P19327 whole entry): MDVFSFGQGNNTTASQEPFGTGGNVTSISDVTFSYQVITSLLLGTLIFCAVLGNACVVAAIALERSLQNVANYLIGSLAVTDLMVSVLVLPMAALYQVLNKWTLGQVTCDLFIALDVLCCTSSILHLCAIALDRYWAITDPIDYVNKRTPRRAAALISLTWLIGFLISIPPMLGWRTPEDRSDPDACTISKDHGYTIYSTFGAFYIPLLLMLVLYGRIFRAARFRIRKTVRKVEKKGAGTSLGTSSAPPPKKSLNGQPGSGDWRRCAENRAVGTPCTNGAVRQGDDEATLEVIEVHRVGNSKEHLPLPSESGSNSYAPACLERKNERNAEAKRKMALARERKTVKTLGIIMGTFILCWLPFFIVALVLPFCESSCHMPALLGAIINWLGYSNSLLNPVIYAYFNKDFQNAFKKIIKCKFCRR

[2] = molecular target: T2, Muscarinic acetylcholine receptor M1 (Rattus norvegicus, UniProt P08482); experiment: Compound was tested for the Binding affinity against rat cortical Muscarinic acetylcholine receptor M1 by Radio ligand [3H]pirenzepine binding assay
T2 sequence (P08482 whole entry): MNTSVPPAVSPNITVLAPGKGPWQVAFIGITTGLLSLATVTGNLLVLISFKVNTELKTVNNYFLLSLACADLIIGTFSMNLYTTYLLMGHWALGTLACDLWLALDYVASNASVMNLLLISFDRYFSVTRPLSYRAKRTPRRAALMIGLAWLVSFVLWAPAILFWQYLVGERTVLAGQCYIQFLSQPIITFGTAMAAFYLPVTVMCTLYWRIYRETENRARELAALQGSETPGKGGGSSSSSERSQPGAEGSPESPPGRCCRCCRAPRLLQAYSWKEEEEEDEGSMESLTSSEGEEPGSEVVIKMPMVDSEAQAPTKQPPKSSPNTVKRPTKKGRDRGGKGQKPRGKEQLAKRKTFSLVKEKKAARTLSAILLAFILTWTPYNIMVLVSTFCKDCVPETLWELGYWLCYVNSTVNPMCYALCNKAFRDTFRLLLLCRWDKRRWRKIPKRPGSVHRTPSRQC

D(4) dopamine receptor = molecular target: T3, D(4) dopamine receptor (Homo sapiens, UniProt P21917); experiment: biochemical
T3 sequence (P21917 whole entry): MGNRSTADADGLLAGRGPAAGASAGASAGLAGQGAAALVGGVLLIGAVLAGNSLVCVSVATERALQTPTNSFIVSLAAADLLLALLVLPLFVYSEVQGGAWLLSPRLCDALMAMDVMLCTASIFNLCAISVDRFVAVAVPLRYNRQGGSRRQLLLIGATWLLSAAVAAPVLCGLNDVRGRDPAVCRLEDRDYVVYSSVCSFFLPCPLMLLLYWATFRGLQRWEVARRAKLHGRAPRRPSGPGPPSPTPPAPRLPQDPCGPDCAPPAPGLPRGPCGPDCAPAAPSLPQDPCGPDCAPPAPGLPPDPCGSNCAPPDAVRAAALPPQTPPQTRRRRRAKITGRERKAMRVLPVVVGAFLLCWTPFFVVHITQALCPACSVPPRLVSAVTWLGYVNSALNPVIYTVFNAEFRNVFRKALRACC

[3] = molecular target: T4, Adrenergic receptor alpha-2 (Rattus norvegicus, UniProt P22086+P19328+P22909); experiment: Compound was tested for the Binding affinity against rat cortical Alpha-2 adrenergic receptor by Radio ligand ([3H]-Rx-821002) binding assay; assay type: protein assay
T4 sequence (P22086 whole entry): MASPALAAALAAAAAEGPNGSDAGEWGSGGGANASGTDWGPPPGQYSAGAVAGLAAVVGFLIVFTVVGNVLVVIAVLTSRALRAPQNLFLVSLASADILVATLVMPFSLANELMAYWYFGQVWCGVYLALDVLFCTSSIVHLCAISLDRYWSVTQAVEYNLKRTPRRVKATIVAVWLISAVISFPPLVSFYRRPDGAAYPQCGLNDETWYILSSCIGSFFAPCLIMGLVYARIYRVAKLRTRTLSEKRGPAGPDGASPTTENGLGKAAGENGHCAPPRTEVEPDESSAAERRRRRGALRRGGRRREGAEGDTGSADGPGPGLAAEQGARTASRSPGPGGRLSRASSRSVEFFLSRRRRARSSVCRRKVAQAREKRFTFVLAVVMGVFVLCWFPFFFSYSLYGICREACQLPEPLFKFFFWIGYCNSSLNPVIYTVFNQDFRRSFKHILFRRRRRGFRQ
T4 sequence (P19328 whole entry): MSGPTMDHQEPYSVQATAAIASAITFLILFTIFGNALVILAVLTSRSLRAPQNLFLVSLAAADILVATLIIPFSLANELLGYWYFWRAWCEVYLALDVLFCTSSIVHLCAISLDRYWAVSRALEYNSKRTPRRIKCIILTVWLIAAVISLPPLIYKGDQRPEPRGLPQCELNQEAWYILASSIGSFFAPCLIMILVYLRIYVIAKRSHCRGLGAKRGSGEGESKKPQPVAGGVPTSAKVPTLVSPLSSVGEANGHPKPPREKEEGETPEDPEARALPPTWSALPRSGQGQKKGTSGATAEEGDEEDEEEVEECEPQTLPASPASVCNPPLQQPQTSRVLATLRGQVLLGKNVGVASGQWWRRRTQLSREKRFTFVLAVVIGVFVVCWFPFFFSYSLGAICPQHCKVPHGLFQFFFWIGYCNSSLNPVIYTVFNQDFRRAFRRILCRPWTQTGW
T4 sequence (P22909 whole entry): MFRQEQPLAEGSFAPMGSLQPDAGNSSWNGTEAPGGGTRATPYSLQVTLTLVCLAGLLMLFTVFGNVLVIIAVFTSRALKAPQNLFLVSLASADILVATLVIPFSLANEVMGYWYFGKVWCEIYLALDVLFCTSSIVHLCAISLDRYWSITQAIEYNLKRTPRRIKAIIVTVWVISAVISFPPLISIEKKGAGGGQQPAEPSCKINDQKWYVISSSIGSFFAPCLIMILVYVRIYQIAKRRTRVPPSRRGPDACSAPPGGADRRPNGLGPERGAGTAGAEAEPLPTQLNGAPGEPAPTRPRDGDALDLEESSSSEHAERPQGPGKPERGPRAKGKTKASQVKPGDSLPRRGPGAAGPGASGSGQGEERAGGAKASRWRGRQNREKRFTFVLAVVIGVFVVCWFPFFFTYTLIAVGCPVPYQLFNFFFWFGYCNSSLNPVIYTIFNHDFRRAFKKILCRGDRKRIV

- Ki [1]: > 10 µM
- Ki [2]: 5.4 µM
- Ki (D(4) dopamine receptor): 0.0021 µM
- Ki [3]: 4.3 µM
SMILES: COc1cc(NC(=O)C2CC2)c(Cl)cc1C(=O)N[C@H]1CCN(Cc2ccccc2)C1
